Results: patent publication US20110201558A1, “Anaplerotic Therapy for Alzheimer's Disease and the Aging Brain” (Baylor Research Institute, priority 2009, published 2011)

Tests used:
mouse brain = details: infusion of propionyl-CoA precursors; compared with heptanoate, BKP, or propionate; cited from earlier work
[1] = set-up: species or system human; details: in vivo
From the text: For example, when using C7 as the source of odd-chain fatty acids these can be provided in the form of a triglyceride, e.g., tri-heptanoin. The triglyceride triheptanoin is provided in a concentration sufficient to provide a beneficial effect is most useful in this aspect of the present invention. The seven-carbon fatty acid may be provided, e.g.:
Goals have been set using 4 g/kg (within ideal body weight (IBW) range) for infants, children, and some adolescents. Goals have been set using 2 g/kg (within IBW range) for adolescents. Goals have been set using 2 g/kg (within IBW range) for adults; but toleration is 1-1.2 g per kg (which is 35% kcal of estimated needs).

[2] = system: patients with inherited disorders of fat and glycogen metabolism as well as pyruvate carboxylase deficiency; details: cited from earlier work

Row | Compound | anaplerosis (stimulation of the CAC and energy production) in mouse brain (mouse brain) | toleration [1] | indirect measures of energy metabolism in the brain and peripheral organs such as muscle and heart [2]
1 | CCCCC(=O)O [pentanoate] | superior |  | 
2 | CCCCCCC(=O)OCC(COC(=O)CCCCCC)OC(=O)CCCCCC [triheptanoin] |  | 1-1.2 g per kg | positive effects
